Measured values as given in PMC4838342 (Nucleic Acids Research, 2015).
Ends that are not written are not given here.

Experiments:
[1] = test system: (His)6-sNASP; experiment: Pulldown of MBP-H3 fusions by (His)6-sNASP (epitope mapping); type: binding, human; conditions: MBP fusions from whole cell bacterial extracts; Nickel-NTA beads; SDS-PAGE, Coomassie
Experimental: (§1) Protein was eluted in the same buffer with 250 mM imidazole, but without protease inhibitors. The (His)6 tag was cleaved overnight by TEV protease, whilst concomitantly dialysing to 100 mM sodium chloride, 20 mM Tris–HCl pH 8.0, 1 mM EDTA and 5 mM dithiothreitol. Cleaved protein was further purified by ion-exchange using a ResourceQ column (GE Healthcare) before gel filtration chromatography in 200 mM sodium chloride, 20 mM Hepes-KOH pH 7.6 and 1 mM EDTA using a 26/60 Superdex 200 column (GE Healthcare). The purified protein was concentrated and stored in aliquots at −80°C. Homologues, truncations and point mutants of sNASP were expressed and purified using the same method. MBP-H3 peptide fusions were expressed in bacteria and used as whole cell extracts (epitope mapping) or purified over a Dextrin Sepharose column (GE Healthcare) in one-step purification in 0.5 M sodium chloride, 20 mM Hepes-KOH pH 7.6, 1 mM EDTA and 5 mM dithiothreitol. Concentrated protein was dialysed against 200 mM sodium chloride, 20 mM Hepes-KOH, 1 mM EDTA and 5 mM dithiothreitol and stored in aliquots at −80°C.
Mutations were made in the MBP H3 116–135 construct using a mixture of site-direct mutagenesis and oligo ligation. Whole cell extracts were prepared from bacteria and used as inputs for the pulldown experiments with (His)6-sNASP pre-bound to Nickel-NTA beads (GE Healthcare).

[2] = test system: sNASP; experiment: Isothermal titration calorimetry, sNASP titrated into MBP H3 116–135; set-up: species or system human; conditions: one-site binding model
Experimental: Isotherms were analysed by the software NITPIC and SEDPHAT ([43]) and plotted using the software GUSSI.

[3] = test system: sNASP; experiment: Analytical gel filtration, sNASP + MBP H3 116–135; type: binding, human; conditions: Superdex S200; 20 mM Hepes-KOH pH 7.5, 200 mM NaCl
Experimental: (§2) Analytical gel filtration was carried out using a Superdex S200 10/300 Gl column (GE Healthcare) in 20 mM Hepes-KOH pH 7.5 and 200 mM sodium chloride, unless otherwise stated. 0.5 ml fractions were collected encompassing the void (7 ml) and bed (21 ml) volumes of the column. Fractions were separated by SDS-PAGE and stained with Coomassie Brilliant Blue (SERVA).

[4] = test system: sNASP homologue from Arabidopsis thaliana; experiment: Pulldown of MBP H3 116–135 by A. thaliana sNASP homologue; type: binding; conditions: (His)6-tagged recombinant homologue
Experimental: as §1
(§3) Mutations were made in the MBP H3 116–135 construct using a mixture of site-direct mutagenesis and oligo ligation. Whole cell extracts were prepared from bacteria and used as inputs for the pulldown experiments with (His)6-sNASP pre-bound to Nickel-NTA beads (GE Healthcare). […]

[5] = test system: Sim3; experiment: Pulldown of MBP H3 116–135 by Sim3; type: binding, Schizosaccharomyces pombe; conditions: (His)6-tagged recombinant homologue
Experimental: as §1, §3

[6] = test system: sNASP homologue from Chaetomium thermophilum; experiment: Pulldown of MBP H3 116–135 by C. thermophilum sNASP homologue; type: binding; conditions: (His)6-tagged recombinant homologue
Experimental: as §1, §3

[7] = test system: Hif1; experiment: Pulldown of MBP H3 116–135 by Hif1; type: binding, Saccharomyces cerevisiae; conditions: (His)6-tagged recombinant homologue
Experimental: as §1, §3

[8] = test system: Sim3; experiment: Gel filtration, Sim3 + MBP H3 116–135; type: binding, Schizosaccharomyces pombe; conditions: Superdex S200; 20 mM Hepes-KOH pH 7.5, 200 mM NaCl
Experimental: as §2

[9] = test system: Hif1-GST; experiment: Gel filtration, Hif1-GST + MBP H3 116–135; type: binding, Saccharomyces cerevisiae; conditions: Superdex S200; 20 mM Hepes-KOH pH 7.5, 200 mM NaCl; Hif1 GST tagged
Experimental: as §2

[10] = test system: sNASP; experiment: Fluorescence-2-hybrid (F2H) assay at LacO array, EGFP-sNASP; type: cell-based, human; conditions: U2OS cells, LacO (256×) array, mCherry-LacI-histone constructs, live cells
Experimental: For all the F2H assays, we used human U2OS cells harbouring the stably integrated lacO (256×) array described earlier ([44]), except for mitochondrial F2H, which was carried out on U2OS cells without an integrated array. F2H assays were essentially performed as previously described in ([45],[46]) and ([44]). Image analysis was manually performed with ImageJ image analysis software. Fluorescence intensity at the LacI array was calculated as a percentage increase over the nucleoplasm. Assignment of the LacO array and nucleoplasm were done manually. Twenty cells were counted for statistical analysis so as not to inflate the calculated P-value. Only cells in which a clearly discernable array was present were counted. For the mitochondrial F2H, the first 70 residues of the outer mitochondrial membrane protein TOM70 were cloned onto the N-terminus of mCherry. Full length H3 or H3 residues 116–135 was then cloned onto the C-terminus of mCherry to create a TOM70-mCherry-Histone triple fusion. Deleting residues 378–383 using standard site-directed mutagenesis techniques disrupted the nuclear localization sequence (NLS) of mEGFP-sNASP, resulting in its cytoplasmic expression.

Substance: 125–135: H3 fragment fused to MBP (QLARRIRGERA; also: fused to MBP; UniProt P68431 126-136, looked up, fragment)
- pulldown by (His)6-sNASP [1]: pulled down efficiently

Substance: CENPA: homologous region of the CENPA variant of H3 from human (VTLFPKDVQLARRIRGLEE; UniProt P49450 119-137, looked up, fragment)
- pulldown by (His)6-sNASP [1]: able to pull down

Substance: MBP H3 116–135: C-terminal 20 residues of H3 fused to MBP
- stoichiometry in words ([2]; partial degradation likely caused underestimated ratios): close to 1:1 stoichiometry
- Kd ([2]; range of n = 3 with varying cell and titrant concentrations, read-out: dissociation constant): 47 to 68 nM
- pulldown by (His)6-sNASP [1]: pulled down to near stoichiometric amounts
- complex formation by gel filtration [3]: form a stable complex
- pulldown by A. thaliana homologue [4]: pulled down stoichiometric amounts
- pulldown by S. pombe homologue (Sim3) [5]: pulled down stoichiometric amounts
- pulldown by C. thermophilum homologue [6]: pulled down stoichiometric amounts
- pulldown by S. cerevisiae homologue (Hif1) [7]: no pull down was observed
- complex formation with Sim3 by gel filtration [8]: coeluted
- complex formation with Hif1-GST by gel filtration [9]: eluted in separate fractions

Substance: last 20 residues of H3: short region encompassing the last 20 residues of H3
- interaction with sNASP in F2H assay [10]: sufficient for binding
